Measured values published in patent US11278518B2, “Methods of treatment using 4-methylumbelliferone and derivatives thereof” (The Board of Trustees of the Leland Stanford Junior …, priority 2017, dated 2022).
Entries after “also recorded” stand apart in the source; their conditions may differ.

What was measured:
DORmO mice = assay: Onset of diabetes in DORmO mice; type: in vivo
Source text: In proof-of-principle studies, 12 candidate esters of 4-MU and 4 candidate esters of 4-MUG were generated and the conversion of these compounds into 4-MU in buffer containing bovin serum was examined. […] Compounds A and B were individually administered to 8 week old DORmO mice. Compound B, butyl-4-MUG, delayed diabetes onset by one month when compared to Compound A. In contrast, mice fed Compound A, ethyl-4-MUG, developed diabetes at 12 weeks of age, at the same time as untreated DORmO mice. […] Briefly, to determine that HA accumulates in the pancreatic islets and creates a permissive environment for autoimmune attacks during autoimmune diabetes disease progression, the DORmO double transgenic mouse model of autoimmune diabetes was used. DORmO mice predictably develop autoimmune diabetes because they are bred to have both a target antigen on their insulin producing beta-cells as well as an immune system that specifically recognizes that antigen. DORmO mice are the result of a cross between RIPmOVA mice (a strain that carries a gene specific for hen egg ovalbumin (OVA) that is only expressed on beta-cells, emulating the auto-antigen) and DO11.10 mice (a strain that carries a T-cell receptor transgene specific for OVA, emulating auto-reactive CD4+ T cells). DORmO mice spontaneously develop autoimmune insulitis starting at four weeks of age and all animals become diabetic (hyperglycemia >200 mg/dl) by 20 weeks of age (Wesley, J. D., et al., J. Immunol. 185, 4760-4768 (2010). Beginning at four weeks of age, mice were weighed weekly as well as bled via the tail vein for the determination of their blood glucose level using a Contour blood glucose meter and blood glucose monitoring strips (Bayer Healthcare). When two consecutive blood glucose readings of 250 mg/dL were recorded, animals were considered diabetic. When two consecutive blood glucose readings of 300 mg/dL were recorded, animals were euthanized. For the in vivo part the oral delivery in the drinking water was the same as for 4-MUG. […]

HA synthesis = assay: Hyaluronan (HA) ELISA of B16F10 cell cultures, inhibition of HA synthesis; type: cell-based, murine; settings: cells cultured 24-72 hours, HA in ELISA-like assay, normalized
Method: B16F10 is a murine melanoma cell line. […] The cells were cultured at 37° C. temperature and an atmosphere of 95% air and 5% carbon dioxide. Cells were cultured in DMEM plus 10% FBS. For the 4-MUG ester experiments, cells were seeded in 48-well plates, at a density of 10,000 cells per well and cultured for 24-72 hours. 4-MU, 4-MUG and the 4-MUG esters were diluted 1:1000 from their stock concentration and added to the cell medium in their final μM concentrations. For the analysis, the cells and the cell supernatant were collected at the end of each experiment and stored at −20° C. until further use. 48-well plates from previous experiments were thawed and 200 μL cell lysis buffer was added to each well. Cells were incubated for 15 minutes at room temperature. The whole lysate was transferred into a 96-well v-bottom plate and centrifuged at 3500 g for 20 minutes at 4° C. After spinning 25 μL from each well was transferred into a flat-bottom 96-well plate and stored until further use. Cell lysis buffer contains Tris-HCl, EDTA, SDS, MgCl2 and Super Nucleasis®. Protein measurement was performed by using the Pierce BCA Protein Assay Kit® (Thermo Scientific) according to the manufacturer instructions. The BCA Protein assay is based on bicinchoninic acid (BCA) for the colorimetric detection and quantitation of total protein. This method combines a biuret reaction (reduction of Cu2+ to Cu1+ by protein in an alkaline medium) with a highly and selective colorimetric detection of the cuprous cation (Cu1+) with the help of bicinchoninic acid. A purple-colored reaction product is formed by the chelation of two BCA molecules with one cuprous ion. This complex has a strong absorbance at 562 nm. The identification of HA in the samples is achieved by utilizing a highly specific HA binding protein (HABP) probe that interacts with HA. […] The HA concentration in the tissue is determined by using an ELISA-like assay. […] The plate was read at 405 nm and the concentrations were calculated according to the standards.

acute lung injury = settings: 4-MU treatment; cited from earlier work
EAE = settings: 4-MU treatment; cited from earlier work
[1] = tested on: collagen-induced arthritis model; settings: 4-MU treatment; cited from earlier work
obese, diabetic mice = settings: 4-MU treatment; cited from earlier work
[2] = in vivo, cited from earlier work
ApoE-deficient mice = settings: 4-MU treatment, high-fat diet; cited from earlier work
[3] = tested on: DORmO and NOD mouse models; settings: 4-MU treatment; cited from earlier work
[4] = tested on: Biliary Duct Ligation (BDL) model; settings: 4-MU; cited from earlier work
[5] = after 6 months of treatment; cited from earlier work
[6] = tested on: FoxP3+ regulatory T-cells; assay: Induction of FoxP3+ regulatory T-cells in vivo; settings: mice
Method: (§1) The 4-MU (Alfa Aesar) was pressed into the mouse chow by TestDiet® and irradiated before shipment. This chow formulation delivered 250 mg/mouse/day, yielding a serum drug concentration of 640.3±17.2 nmol/L in mice, as measured by HPLC-MS. 4-MUG (ChemImpex) was distributed in the drinking water of the mice at a 5% concentration which should deliver 0.325 mg/mouse/day, yielding a serum drug concentration of 357.1±72.6 ng/mL in mice, as measured by HPLC-MS. Mice were initiated on 4-MU and 4-MUG at five, eight or twelve weeks of age, unless otherwise noted, and were maintained on this diet until they were euthanized, unless otherwise noted. For analysis of Foxp3+ regulatory T cell numbers in naïve mice, mice were treated daily with 0.5 mg of 4-MU or 1.0 mg 4-MUG in 200 μl 0.08% carboxymethylcellulose in saline by intraperitoneal (i.p.) injection.

[7] = Serum drug concentration in mice by HPLC-MS; type: in vivo; settings: 4-MUG in drinking water at 5%, 0.325 mg/mouse/day
Method: as §1, with “([…])” for “(ChemImpex)”

With CCCCOC(=O)C1O[C@@H](Oc2ccc3c(C)cc(=O)oc3c2)C(O)[C@H](O)[C@@H]1O (stereo partly drawn) [Compound B] the onset of diabetes (DORmO mice; at 1/100th the dose of 4-MU) was “delays the onset of diabetes” and the “inhibition of HA synthesis” value (HA synthesis) was “best inhibited HA synthesis in vitro”.

For Cc1cc(=O)oc2cc(O)ccc12 [Compound 4-MU, 4-methylumbelliferone], the lung injury (acute lung injury) is given as “decreased or prevented lung injury”, the EAE disease (EAE) is given as “prevent and treat disease; also recorded: limit the progression” and the disease scores [1] is given as “improved disease scores”. For the same compound, the glycemia (obese, diabetic mice) was “restores normoglycemia”, the bioavailability ([2]; first-pass glucuronidation) was 2-3% and the “extraction by the liver” value [2] was ≤ 97%. The protection from diabetes (DORmO mice; 0.65% 4-MU (approximately 10x less)) was “only partially protective”, the atherosclerosis (ApoE-deficient mice) was “worse atherosclerosis” and the “progression of autoimmune diabetes” value [3] was “limit the progression”. The fibrosis [4] was “reduce fibrosis”.

For CCOC(=O)C1O[C@@H](Oc2ccc3c(C)cc(=O)oc3c2)C(O)[C@H](O)[C@@H]1O (stereo partly drawn) [Compound A, 4-methylumbelliferyl β-D-glucuronide ethyl ester], the “age at which mice developed diabetes” value (DORmO mice; 8 week old DORmO mice, 0.05% in drinking water) was 12 weeks and the “inhibition of HA synthesis” value (HA synthesis) was “best inhibited HA synthesis in vitro”.

In the case of C[C@H](CCC(=O)O)[C@H]1CC[C@H]2[C@@H]3[C@@H](O)C[C@@H]4C[C@H](O)CC[C@]4(C)[C@H]3CC[C@]12C [UDCA, ursodeoxycholic acid], the “bile concentration of UDCA” value [5] is listed as “up to 70%”.

In the case of Cc1cc(=O)oc2cc(O[C@@H]3O[C@H](C(=O)O)[C@@H](O)[C@H](O)[C@H]3O)ccc12 [Compound 4-MUG, 4-methylumbelliferone glucuronide], the “fraction of Foxp3+ regulatory T-cells (induction)” value [6] is reported as “also has this property in vivo; also recorded: does increase; also recorded: increases”, the “numbers of CD3+ T-cells” value [6] is reported as “does not increase” and the “numbers of CD4+ T-cells” value [6] is reported as “does not increase”. For the same compound, the “numbers of CD25+ T-cells” value [6] was “does not increase”, the serum drug concentration [7] was 357.1 ± 72.6 ng/mL and the “inhibition of HA synthesis” value (HA synthesis) was “inhibits HA synthesis by human cell lines as well as 4-MU; also recorded: inhibits HA synthesis as effectively as 4-MU”.
